According to ChEMBL document CHEMBL1201862, “PubChem BioAssay data set” (2004):
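Values below derive from 48-hour exposures of cells grown in 96-well plates, with endpoints linearly interpolated between the two concentrations bracketing the appropriate inhibition level. The concentration for 50% growth inhibition is given as GI50.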 The source made the active and inactive calls. Rule as the data show it: active = GI50 up to about 1.1 µM and inactive = higher.

Key:
Assay in all cases: inhibition of tumour cell growth, NCI panel, 48 h
[1] = test system: SW-620
[2] = test system: NCI-H522
[3] = test system: MOLT-4
[4] = test system: HOP-62
[5] = test system: SN12C
[6] = test system: SR
[7] = test system: SF-268
[8] = test system: LOX IMVI
[9] = test system: OVCAR-4
[10] = test system: A549
[11] = test system: NCI-H460
[12] = test system: M14
[13] = test system: CCRF-CEM
[14] = test system: NCI-H23
[15] = test system: UACC-257
[16] = test system: SNB-19
[17] = test system: DMS-273
[18] = test system: SK-MEL-28
[19] = test system: DMS-114
[20] = test system: KM12
[21] = test system: U-251
[22] = test system: M19-MEL
[23] = test system: SF-539
[24] = test system: A498
[25] = test system: OVCAR-5
[26] = test system: KM-20L2
[27] = test system: DLD-1
[28] = test system: RXF 631
[29] = test system: HL-60
[30] = test system: ACHN
[31] = test system: SK-MEL-2
[32] = test system: HCT-116
[33] = test system: RPMI-8226
[34] = test system: SF-295
[35] = test system: SK-MEL-5
[36] = test system: Malme-3M
[37] = test system: UO-31
[38] = test system: K562
[39] = test system: CAKI-1
[40] = test system: EKVX
[41] = test system: RXF 393
[42] = test system: IGROV-1
[43] = test system: HCC 2998
[44] = test system: SNB-78
[45] = test system: NCI-H226
[46] = test system: XF498
[47] = test system: COLO 205
[48] = test system: OVCAR-3
[49] = test system: HOP-92
[50] = test system: UACC-62
[51] = test system: TK-10
[52] = test system: LXFL 529
[53] = test system: SNB-75
[54] = test system: SK-OV-3
[55] = test system: HT-29

Measured: GI50

CCC(C(=O)O)c1ccc(OC)cc1 (stereo not given)
inactive: [1] > 100 µM | [2] > 100 µM | [3] > 100 µM | [4] > 100 µM | [5] > 100 µM | [6] > 100 µM | [7] > 100 µM | [8] > 100 µM | [9] > 100 µM | [10] > 100 µM | [11] > 100 µM | [12] > 100 µM | [13] > 100 µM | [14] > 100 µM | [15] > 100 µM | [16] > 100 µM | [17] > 100 µM | [18] > 100 µM | [19] > 100 µM | [20] > 100 µM | [21] > 100 µM | [22] > 100 µM | [23] > 100 µM | [24] > 100 µM | [25] > 100 µM | [26] > 100 µM | [27] > 100 µM | [28] > 100 µM | [29] > 100 µM | [30] > 100 µM | [31] > 100 µM | [32] > 100 µM | [33] > 100 µM | [34] > 100 µM | [35] > 100 µM | [36] > 100 µM | [37] > 100 µM | [38] > 100 µM | [39] > 100 µM | [40] > 100 µM | [41] > 100 µM | [42] > 100 µM | [43] > 100 µM | [44] > 100 µM | [45] > 100 µM | [46] > 100 µM | [47] > 100 µM | [48] > 100 µM | [49] > 100 µM | [50] > 100 µM | [51] > 100 µM | [52] > 100 µM | [53] > 100 µM | [54] > 100 µM | [55] > 100 µM
